This is an account of results in PMC11444265 (European journal of medicinal chemistry, 2021).

In one series the test system is P. aeruginosa. It counts as cell-based, Pseudomonas aeruginosa. The following applies: for susceptibility of strain: strain AR-BANK#0229.
The test system of series [1] is human primary hepatocytes. Nature of the series: Cytotoxicity in human primary hepatocytes. It counts as cell-based. The note with it: maximal dose of 100 μM.
The next series relates to Acinetobacter spp. Nature of the series: MIC in low iron media, 198-member panel of Acinetobacter spp. clinical isolates. The class given is cell-based.
Series [2] relates to P. aeruginosa AR-BANK#0229. Nature of the series: Neutropenic mouse thigh infection model. The class given is in vivo. The following applies: 50 and 100 mg/kg SC q6h, neutropenic mice.
For a further series, the system named is K. pneumoniae. It counts as cell-based. The following applies: Klebsiella pneumoniae.
Series [3] is described as follows: Plasma protein binding, mouse. The class given is in vitro ADME.
For the next series, the system named is 8 CYP enzymes. Nature of the series: CYP inhibition panel. The class given is in vitro ADME. The note with it: 7 of the 8 CYP enzymes tested, 30 μM.
Series [4] in a line: Plasma protein binding, human. It counts as in vitro ADME.
The test system of series [5] is MDR strains of K. pneumoniae, Acinetobacter spp., and P. aeruginosa. Nature of the series: MIC50 summary against MDR strains. The class given is cell-based.
The subject of series [6] is Acinetobacter spp. isolates resistant to 2. Nature of the series: MIC of 2 in combination with efflux pump inhibitors. The note with it: for direct effect of efflux pump inhibitor on growth: 2 μg/mL for CCCP and 32 μg/mL for PAβN. The class given is cell-based.
Series [7] deals with carbapenem-resistant A. baumannii (CRAB). Nature of the series: MIC in low iron media, 98-member carbapenem-resistant A. baumannii. The class given is cell-based.
In series [8] the test system is 6 ion channels, including hERG. Nature of the series: Ion channel panel. The note with it: 30 μM maximal dose.
Series [9] can be described thus: Pharmacokinetics in CD-1 mice, 50 mg/kg sc or iv. It counts as in vivo. The note with it: for Sample Conc (individual mouse plasma): sc 50 mg/kg.
A further series relates to Caco-2. Nature of the series: Caco-2 permeability. It counts as in vitro ADME. On the technique in general: Caco-2 cells form a polarised layer with tight junctions and transporters.
For series [10] the following is noted: mice; cited from earlier work.

Converted amounts (≈) assume the structure as drawn. “And” between values parts separate entries of the source, which are not always exact repeats. Equal values may be shown once. “Also recorded” adds a separate entry of the source. Peptide text beside a SMILES is read from it. * marks the point of attachment. βNA = c1ccc2cc(N*)ccc2c1

With `CNC(C)C1CCC(N)C(OC2C(N)CC(N)C(OC3OCC(C)(O)C(NC)C3O)C2O)O1` (stereo not shown) [gentamicin], the susceptibility of strain result in the series on P. aeruginosa is given as “susceptible”.

Turning to `NCC[C@H](O)C(=O)N[C@@H]1C[C@H](N)[C@@H](O[C@H]2O[C@H](CN)[C@@H](O)[C@H](O)[C@H]2O)[C@H](O)[C@H]1O[C@H]1O[C@H](CO)[C@@H](O)[C@H](N)[C@H]1O` [amikacin], the susceptibility of strain entry with P. aeruginosa is given as “susceptible”.

Turning to `CC(C)(O/N=C(\C(=O)N[C@H]1CN2CC(C(=O)NCCN3C(=O)c4cc(O)c(O)cc4C3=O)=C(C(=O)O)N2C1=O)c1nc(N)sc1Cl)C(=O)O` [Compound 2, (S,Z)-6-(2-(2-amino-5-chlorothiazol-4-yl)-2-(((2-carboxypropan-2-yl)oxy)imino)acetamido)-2-((2-(5,6-dihydroxy-1,3-dioxoisoindolin-2-yl)ethyl)carbamoyl)-5-oxo-6,7-dihydro-1H,5H-pyrazolo[1,2-a]pyrazole-3-carboxylic acid], the cytotoxicity entry in [1] is listed as “not found”. Also, the “fraction of strains with MICs >=16 μg/mL” value in the series with Acinetobacter spp. (24 of 198 tested strains) is 12%; in series [7] (carbapenem-resistant subgroup, 15 of 98), 15%. Also, the MIC90 in the series with Acinetobacter spp. (Acinetobacter) is above 16 µg/mL. Also, in the series with Acinetobacter spp. (full 198 member panel, 2 with 20 μg/mL coadministration of sulbactam), the “share of panel that could be susceptible” value was found to be 98%. Moreover, the “efficacy (thigh bacterial burden, CFU)” value in series [2] is recorded as “dose-dependent efficacy; also recorded: dose-dependent reduction in CFU values”. Also, the results for the MIC50 (in the series with K. pneumoniae; in series [5]; against P. aeruginosa (Pseudomonas aeruginosa)) were 1000 µg/mL (≈ 1390 µM), at most 0.5 µg/mL and 500 µg/mL (≈ 693 µM), respectively. For the same compound, the protein-bound in series [3] is given as 94%; in series [4], 88%. Also, the CYP inhibition entry in the series with 8 CYP enzymes is on record as “does not inhibit”. Moreover, in series [6] (combined with CCCP 2 μg/mL or PAβN 32 μg/mL), the “effect of efflux pump inhibitors on MIC of 2” value was “no consistent effect on MIC values”. The “effect of combination with CCCP” value in series [6] (isolate PR-452, CCCP 2 μg/mL) is given as “Potential synergistic effects”. For the same compound, the “susceptibility of panel (isolates susceptible)” value in series [7] (98 CRAB subset, cefiderocol breakpoint <=4 μg/mL applied, 81 out of 98) is recorded as 83%. The ion channel inhibition result in series [8] is given as “did not inhibit these channels”. The “plasma level at the 6h time point” value in series [9] (CD-1 mice, by both dosing routes (sc and iv)) was above 1000 µg/mL. The “Sample Conc (individual mouse plasma)” value was 48689 ng/mL and 44921 ng/mL in series [9] (0.167 h); 14355 ng/mL and 14094 ng/mL in series [9] (0.5 h); 3515 ng/mL and 3186 ng/mL in series [9] (1 h); 2876 ng/mL in series [9] (2 h); 1534 ng/mL and 739 ng/mL in series [9] (4 h); 1102 ng/mL and 1425 ng/mL in [9] (6 h). In addition, the “Sample Conc (individual mouse plasma)” value in series [9] (8 h) was 1473 ng/mL and 1126 ng/mL; in [9] (24 h), 545 ng/mL and 579 ng/mL. Besides, the Caco-2 permeability result with Caco-2 is reported as “poor Caco-2 permeability”.

Turning to `C[C@@H](O)[C@H]1C(=O)N2C(C(=O)O)=C(S[C@@H]3CN[C@H](C(=O)N(C)C)C3)[C@H](C)[C@H]12` [Meropenem (5), meropenem, reference compound], the MIC90 (against Acinetobacter spp. (Acinetobacter); in series [7] (Acinetobacter baumannii)) was above 64 µg/mL throughout. This compound yielded an MIC50 in series [5] above 8 µg/mL.

Compound `CC(C)(O/N=C(\C(=O)N[C@@H]1C(=O)N2C(C(=O)[O-])=C(C[n+]3ccccc3)CS[C@H]12)c1csc(N)n1)C(=O)O` [Ceftazidime (4), ceftazidime] came in with an MIC90 with Acinetobacter spp. (Acinetobacter) above 64 µg/mL.

Consider colistin, for which the susceptibility of strain entry in the series on P. aeruginosa is “susceptible”.

For `CC(C)(O/N=C(\C(=O)N[C@H]1CN2CC(C(=O)NCCN3C(=O)c4cc(O)c(O)cc4C3=O)=C(C(=O)O)N2C1=O)c1csc(N)n1)C(=O)O` [Compound 1], the “efficacy (thigh bacterial burden, CFU)” value in series [2] is “not found to have efficacy”. Further, the “plasma concentration at the 6-hour timepoint” value in [10] is recorded as “about 0.35 mg/mL”.

In the case of `CC1(C)[C@H](C(=O)O)N2C(=O)C[C@H]2S1(=O)=O` [Compound 10, sulbactam], the “isolates with MICs <=16 μg/mL” value in the series with Acinetobacter spp. (24 isolates with MIC of 2 >=16 μg/mL, 19/24) is reported as 79%.

In the series with Acinetobacter spp. (Acinetobacter), `C[C@H]1[C@H](NC(=O)/C(=N\OC(C)(C)C(=O)O)c2csc(N)n2)C(=O)N1S(=O)(=O)O` [Aztreonam (3), aztreonam] yielded an MIC50 above 32 µg/mL and an MIC90 above 32 µg/mL.

`N#CC(C#N)=NNc1cccc(Cl)c1` [CCCP, carbonyl cyanide 3-chlorophenylhydrazone, reference compound]: the “direct effect of efflux pump inhibitor on growth” value in series [6] is recorded as “No significant inhibition effect on growth”.

Consider `NC(N)=NCCC[C@H](NC(=O)[C@@H](N)Cc1ccccc1)C(=O)Nc1ccc2ccccc2c1` [PaβN, phenylalanine-arginine β-naphthylamide, reference compound] (H-Phe-Arg-βNA), for which the “direct effect of efflux pump inhibitor on growth” value in series [6] was “No significant inhibition effect on growth”.

As a reminder, the MIC90 is an inhibitory concentration at the 90% level, which refers to growth in some studies and to a panel of isolates in others. Low values mean higher susceptibility, high ones lower susceptibility. By MIC50 is commonly meant the lowest concentration that inhibits either 50% of growth or 50% of the strains tested, depending on the study.
